Source: patent US20260240858A1, “ORAL FORMULATIONS, METHODS OF MANUFACTURE AND USES THEREOF” (Agency For Science, Technology And Research, priority 2019, published 2026)
Where two headings read alike, the source gives them in different places.

Tests used:
[1] = Degradation in water with and without SLS; assay type: physicochemical; conditions: after 24 h at 25° C.
[2] = Particle size by dynamic light scattering; assay type: physicochemical
[3] = Flow properties (bulk density, tapped density, Carr's index); assay type: physicochemical; conditions: API alone
From the text: Magnesium stearate was included to prevent sticking of the blend to the encapsulator contact parts (Torpac).

[4] = Solubility of compound of Formula (I) in water, buffers and surfactant solutions; assay type: physicochemical
Protocol: In water, compound of Formula (I) has a solubility of about 6 μg/mL. At pH 6, the solubility is about 5 μg/mL.

Moisture sorption = assay type: physicochemical; conditions: at above 90% RH
[5] = Permeability of compound of Formula (I)

- degradation ([1]; In water): about 40%
- degradation ([1]; water with 2% w/v SLS): no (or minimal) degradation
- d10 [2]: 2-5 μm
- d50 [2]: 10-30 μm
- d90 [2]: 35-55 μm
- flow properties of the API [3]: poor flow properties
- solubility ([4]; 2% w/v SLS in water, pH 8.82, aqueous with cosolvent or surfactant or cyclodextrin, thermodynamic from solid, 2% w/v SLS is water, pH after equilibration 8.82, read-out: Solubility Sample-1): 458 µg/mL
- solubility ([4]; 2% w/v SLS in water, pH 8.82, aqueous with cosolvent or surfactant or cyclodextrin, thermodynamic from solid, 2% w/v SLS is water, pH after equilibration 8.82, read-out: Solubility Sample-2): 429 µg/mL
- solubility ([4]; 2% w/v Tween 80 in pH 3.0 buffer, pH 3, aqueous with cosolvent or surfactant or cyclodextrin, thermodynamic from solid, 2% w/v Tween 80 in pH 3.0 buffer, pH after equilibration 3.16, read-out: Solubility Average (n = 2)): 25.2 µg/mL
- solubility ([4]; 2% w/v Tween 80 in pH 3.0 buffer, pH 3, aqueous with cosolvent or surfactant or cyclodextrin, thermodynamic from solid, 2% w/v Tween 80 in pH 3.0 buffer, pH after equilibration 3.16, read-out: Solubility Sample-1): 23.8 µg/mL
- solubility ([4]; 2% w/v Tween 80 in pH 3.0 buffer, pH 3, aqueous with cosolvent or surfactant or cyclodextrin, thermodynamic from solid, 2% w/v Tween 80 in pH 3.0 buffer, pH after equilibration 3.16, read-out: Solubility Sample-2): 26.7 µg/mL
- solubility ([4]; 2% w/v Tween 80 in water, pH 7.72, aqueous with cosolvent or surfactant or cyclodextrin, thermodynamic from solid, 2% w/v Tween 80 in water, pH after equilibration 7.72, read-out: Solubility Average (n = 2)): 22.8 µg/mL
- solubility ([4]; 2% w/v Tween 80 in water, pH 7.72, aqueous with cosolvent or surfactant or cyclodextrin, thermodynamic from solid, 2% w/v Tween 80 in water, pH after equilibration 7.72, read-out: Solubility Sample-1): 22.4 µg/mL
- solubility ([4]; 2% w/v Tween 80 in water, pH 7.72, aqueous with cosolvent or surfactant or cyclodextrin, thermodynamic from solid, 2% w/v Tween 80 in water, pH after equilibration 7.72, read-out: Solubility Sample-2): 23.2 µg/mL
- solubility ([4]; 5% w/v PVP K 30 in pH 1.2 buffer, pH 1.2, aqueous with cosolvent or surfactant or cyclodextrin, thermodynamic from solid, 5% w/v PVP K 30 in pH 1.2 buffer, pH after equilibration 1.25, read-out: Solubility Average (n = 2)): 35 µg/mL
- solubility ([4]; 5% w/v PVP K 30 in pH 1.2 buffer, pH 1.2, aqueous with cosolvent or surfactant or cyclodextrin, thermodynamic from solid, 5% w/v PVP K 30 in pH 1.2 buffer, pH after equilibration 1.25, read-out: Solubility Sample-1): 34.8 µg/mL
- solubility ([4]; 5% w/v PVP K 30 in pH 1.2 buffer, pH 1.2, aqueous with cosolvent or surfactant or cyclodextrin, thermodynamic from solid, 5% w/v PVP K 30 in pH 1.2 buffer, pH after equilibration 1.25, read-out: Solubility Sample-2): 35.2 µg/mL
- solubility ([4]; 5% w/v PVP K 30 in pH 3.0 buffer, pH 3, aqueous with cosolvent or surfactant or cyclodextrin, thermodynamic from solid, 5% w/v PVP K 30 in pH 3.0 buffer, pH after equilibration 3.12, read-out: Solubility Average (n = 2)): 17.9 µg/mL
- solubility ([4]; 5% w/v PVP K 30 in pH 3.0 buffer, pH 3, aqueous with cosolvent or surfactant or cyclodextrin, thermodynamic from solid, 5% w/v PVP K 30 in pH 3.0 buffer, pH after equilibration 3.12, read-out: Solubility Sample-1): 19.9 µg/mL
- solubility ([4]; 5% w/v PVP K 30 in pH 3.0 buffer, pH 3, aqueous with cosolvent or surfactant or cyclodextrin, thermodynamic from solid, 5% w/v PVP K 30 in pH 3.0 buffer, pH after equilibration 3.12, read-out: Solubility Sample-2): 15.8 µg/mL
- solubility ([4]; 5% w/v PVP K 30 in water, pH 3.96, aqueous with cosolvent or surfactant or cyclodextrin, thermodynamic from solid, 5% w/v PVP K 30 in water, pH after equilibration 3.96, read-out: Solubility Average (n = 2)): 15.8 µg/mL
- solubility ([4]; 5% w/v PVP K 30 in water, pH 3.96, aqueous with cosolvent or surfactant or cyclodextrin, thermodynamic from solid, 5% w/v PVP K 30 in water, pH after equilibration 3.96, read-out: Solubility Sample-1): 18.1 µg/mL
- solubility ([4]; 5% w/v PVP K 30 in water, pH 3.96, aqueous with cosolvent or surfactant or cyclodextrin, thermodynamic from solid, 5% w/v PVP K 30 in water, pH after equilibration 3.96, read-out: Solubility Sample-2): 13.5 µg/mL
- solubility ([4]; 20% w/v SLS in pH 1.2 buffer, pH 1.2, aqueous with cosolvent or surfactant or cyclodextrin, thermodynamic from solid, 20% w/v SLSixpB 1.2 buffer, pH after equilibration 1.33, read-out: Solubility Average (n = 2)): 2020 µg/mL
- solubility ([4]; 20% w/v SLS in pH 1.2 buffer, pH 1.2, aqueous with cosolvent or surfactant or cyclodextrin, thermodynamic from solid, 20% w/v SLSixpB 1.2 buffer, pH after equilibration 1.33, read-out: Solubility Sample-1): 1860 µg/mL
- solubility ([4]; 20% w/v SLS in pH 1.2 buffer, pH 1.2, aqueous with cosolvent or surfactant or cyclodextrin, thermodynamic from solid, 20% w/v SLSixpB 1.2 buffer, pH after equilibration 1.33, read-out: Solubility Sample-2): 2170 µg/mL
- solubility ([4]; 28% w/v SLS in pH 3.0 buffer, pH 3, aqueous with cosolvent or surfactant or cyclodextrin, thermodynamic from solid, 28% w/v SL.S in pH 3.0 baffer, pH after equilibration 2.95, read-out: Solubility Average (n = 2)): 404 µg/mL
- solubility ([4]; 28% w/v SLS in pH 3.0 buffer, pH 3, aqueous with cosolvent or surfactant or cyclodextrin, thermodynamic from solid, 28% w/v SL.S in pH 3.0 baffer, pH after equilibration 2.95, read-out: Solubility Sample-1): 394 µg/mL
- solubility ([4]; 28% w/v SLS in pH 3.0 buffer, pH 3, aqueous with cosolvent or surfactant or cyclodextrin, thermodynamic from solid, 28% w/v SL.S in pH 3.0 baffer, pH after equilibration 2.95, read-out: Solubility Sample-2): 415 µg/mL
- solubility ([4]; 29% w/v Tween 80 in pH 1.2 buffer, pH 1.2, aqueous with cosolvent or surfactant or cyclodextrin, thermodynamic from solid, 29% w/v Tween 80 in pH 1.2 buffer, pH after equilibration 1.25, read-out: Solubility Average (n = 2)): 37.2 µg/mL
- solubility ([4]; 29% w/v Tween 80 in pH 1.2 buffer, pH 1.2, aqueous with cosolvent or surfactant or cyclodextrin, thermodynamic from solid, 29% w/v Tween 80 in pH 1.2 buffer, pH after equilibration 1.25, read-out: Solubility Sample-1): 37.3 µg/mL
- solubility ([4]; 29% w/v Tween 80 in pH 1.2 buffer, pH 1.2, aqueous with cosolvent or surfactant or cyclodextrin, thermodynamic from solid, 29% w/v Tween 80 in pH 1.2 buffer, pH after equilibration 1.25, read-out: Solubility Sample-2): 37.1 µg/mL
- solubility ([4]; 50% w/v Poloxamer 188 in pH 1.2 buffer, pH 1.2, aqueous with cosolvent or surfactant or cyclodextrin, thermodynamic from solid, 50% w/v Poloxamer 188 in pH 1.2 buffer, pH after equilibration 1.25, read-out: Solubility Average (n = 2)): 35.5 µg/mL
- solubility ([4]; 50% w/v Poloxamer 188 in pH 1.2 buffer, pH 1.2, aqueous with cosolvent or surfactant or cyclodextrin, thermodynamic from solid, 50% w/v Poloxamer 188 in pH 1.2 buffer, pH after equilibration 1.25, read-out: Solubility Sample-1): 35.6 µg/mL
- solubility ([4]; 50% w/v Poloxamer 188 in pH 1.2 buffer, pH 1.2, aqueous with cosolvent or surfactant or cyclodextrin, thermodynamic from solid, 50% w/v Poloxamer 188 in pH 1.2 buffer, pH after equilibration 1.25, read-out: Solubility Sample-2): 35.4 µg/mL
- solubility ([4]; 50% w/v Poloxamer 188 in water, pH 7.23, aqueous with cosolvent or surfactant or cyclodextrin, thermodynamic from solid, 50% w/v Poloxamer 188 in water, pH after equilibration 7.23, read-out: Solubility Average (n = 2)): 9.63 µg/mL
- solubility ([4]; 50% w/v Poloxamer 188 in water, pH 7.23, aqueous with cosolvent or surfactant or cyclodextrin, thermodynamic from solid, 50% w/v Poloxamer 188 in water, pH after equilibration 7.23, read-out: Solubility Sample-1): 10.9 µg/mL
- solubility ([4]; 50% w/v Poloxamer 188 in water, pH 7.23, aqueous with cosolvent or surfactant or cyclodextrin, thermodynamic from solid, 50% w/v Poloxamer 188 in water, pH after equilibration 7.23, read-out: Solubility Sample-2): 8.39 µg/mL
- solubility ([4]; 59% w/v Poloxamer 188 in pH 3.0 buffer, pH 3, aqueous with cosolvent or surfactant or cyclodextrin, thermodynamic from solid, 59% w/v Poloxamer 188 in pH 3.0 buffer, pH after equilibration 3.30, read-out: Solubility Average (n = 2)): 18.3 µg/mL
- solubility ([4]; 59% w/v Poloxamer 188 in pH 3.0 buffer, pH 3, aqueous with cosolvent or surfactant or cyclodextrin, thermodynamic from solid, 59% w/v Poloxamer 188 in pH 3.0 buffer, pH after equilibration 3.30, read-out: Solubility Sample-1): 18.7 µg/mL
- solubility ([4]; 59% w/v Poloxamer 188 in pH 3.0 buffer, pH 3, aqueous with cosolvent or surfactant or cyclodextrin, thermodynamic from solid, 59% w/v Poloxamer 188 in pH 3.0 buffer, pH after equilibration 3.30, read-out: Solubility Sample-2): 17.9 µg/mL
- solubility ([4]; citrate buffer, pH 3, aqueous buffer, thermodynamic from solid, pH 3.0 (Citrate buffer), read-out: Solubility Average (n = 2)): 7.77 µg/mL
- solubility ([4]; citrate buffer, pH 3, aqueous buffer, thermodynamic from solid, pH 3.0 (Citrate buffer), read-out: Solubility Sample-1): 7.76 µg/mL
- solubility ([4]; citrate buffer, pH 3, aqueous buffer, thermodynamic from solid, pH 3.0 (Citrate buffer), read-out: Solubility Sample-2): 7.78 µg/mL
- solubility ([4]; hydrochloric acid buffer, pH 1.2, simulated gastric fluid, thermodynamic from solid, pH 1.2 (Hydrochloric acid buffer), read-out: Solubility Average (n = 2)): 20.8 µg/mL
- solubility ([4]; hydrochloric acid buffer, pH 1.2, simulated gastric fluid, thermodynamic from solid, pH 1.2 (Hydrochloric acid buffer), read-out: Solubility Sample-1): 20.8 µg/mL
- solubility ([4]; hydrochloric acid buffer, pH 1.2, simulated gastric fluid, thermodynamic from solid, pH 1.2 (Hydrochloric acid buffer), read-out: Solubility Sample-2): 20.9 µg/mL
- solubility ([4]; pH 2, simulated gastric fluid, At pH 2, read-out: solubility): ~8.4 µg/mL
- solubility ([4]; pH 4, aqueous buffer, At pH 4, read-out: solubility): ~6.4 µg/mL
- solubility ([4]; pH 6, aqueous buffer, At pH 6, read-out: solubility): ~5 µg/mL
- solubility ([4]; water, In water, read-out: solubility): ~6 µg/mL
- solubility ([4]; water, in water, read-out: solubility): < 6 µg/mL
- solubility ([4]; water, pH 7.95, water, thermodynamic from solid, Water, pH after equilibration 7.95, read-out: Solubility Average (n = 2)): 5.99 µg/mL
- solubility ([4]; water, pH 7.95, water, thermodynamic from solid, Water, pH after equilibration 7.95, read-out: Solubility Sample-1): 6 µg/mL
- solubility ([4]; water, pH 7.95, water, thermodynamic from solid, Water, pH after equilibration 7.95, read-out: Solubility Sample-2): 5.97 µg/mL
- water uptake (Moisture sorption): about 1%
- permeability [5]: low
Compound: Cn1c(=O)c2c(ncn2CC(=O)Nc2ccc(-c3ccccc3)nn2)n(C)c1=O [compound of Formula (I)]
